Laboratory results taken from patent US20140314780A1, “Compositions Using Antibodies Directed to GPNMB and Uses Thereof” (Celldex Therapeutics, Inc., priority 2008, published 2014).
“Also recorded” adds a separate entry of the source.

Key:
Type in all cases: cell-based, human
[1] = tested on: GPNMB; test: Immunoblotting for GPNMB on whole-cell lysates of cancer cell lines after drug exposure; conditions: for increase of GPNMB expression in the screen: determined by immunoblotting and/or flow cytometry analysis; for GPNMB expressed after protein synthesis inhibition: 1 hour, absence of ammonium chloride (FIG. 6D)
Source text: Cancer cell lines were of human origin and were obtained from the American Type Culture Collection (Manassas, Va.) and from the National Cancer Institute (Bethesda, Md.) and cultured in RPMI-1640 supplemented with 10% FBS (growth media). Sources of reagents were as follows: RAFKi (553013), MEKi (U0126), MEKi (PD98059), MEKi (444939), ERKi (FR180204), p38 MAPKi (SB202190), p38 MAPKi (SB203580), aurora kinase inhibitor (189404), JNK inhibitor (420119), MMPi (GM6001) were from EMD Chemicals (San Diego, Calif.). ERKi (A6355), RAFKi: (GW5074), ammonium chloride (NH4Cl), chloroquine, monensin, cyclohexamide and emetine were from Sigma (Saint Louis, Mo.). HSP90i (geldanamycin) was from AG Scientific (San Diego, Calif.) and imatinib (Gleevec) was purchased from a pharmacy.
Cells were seeded in 6-well tissue culture dishes at a subconfluent density and allowed to attach overnight. For harvesting cell lysates, media was removed, cells were briefly washed with serum-free media and then 1× Tris-glycine SDS sample buffer (Invitrogen, Carlsbad, Calif.) supplemented with 10 mM dithiothreitol (Sigma) was added directly to the wells. Cell lysates were then collected and boiled for 10 minutes. For preparing conditioned media, drug treatments were performed in a minimum volume of growth media (1.5 mL/well). Following 48 hours of incubation, conditioned media was collected, briefly microfuged, mixed with an equal volume of 2× Tris-glycine SDS sample buffer (Invitrogen, Carlsbad, Calif.) supplemented with 20 mM dithiothreitol (Sigma) and boiled for 10 minutes. For cell lysates, samples were quantified and an equal quantity of protein/lane was resolved on 4-20% gradient polyacrylamide gels (Invitrogen) and then transferred to nitrocellulose filters (Invitrogen). The volume of conditioned media loaded/lane was adjusted based on the protein concentration determined in the respective cell lysates. Immunoblotting was performed using standard procedures and the following primary antibodies: MARTI (sc-20032), TYRP2 (sc-25544), TYRP1 (sc-25543), PMEL17 (sc-15010), MAGEA1 (sc-20033), MCSP (sc-20162), MTf (sc-26651), MCAM (sc-18942), pp-ERK (sc-7976) and ERK (sc-94) (preceding antibodies were purchased from Santa Cruz Biotechnologies, Santa Cruz, Calif.), GPNMB (AF2550; R & D Systems, Minneapolis Minn.), actin (A5060; Sigma). Following incubation with the appropriate horseradish peroxidase-conjugated secondary antibodies, enhanced chemiluminescence (GE Healthcare, Chalfont St. Giles, United Kingdom) was used for detection.

[2] = tested on: phospho-ERK (pp-ERK); test: Immunoblotting for phospho-ERK (level of ERK activation)
Source text: In the experiment presented in FIG. 2A, potential inhibition of the ERK pathway was investigated by immunoblotting for phospho-ERK (pp-ERK), which represents the active form of this signaling molecule.

[3] = tested on: GPNMB surface expression on A375 melanoma cells; test: Flow cytometry of GPNMB surface expression, A375 cells; conditions: for GPNMB surface expression, flow cytometry GeoMean: A375, CR011 (anti-GPNMB) primary antibody
Protocol: (§1) Cells were seeded in 6-well tissue culture dishes at a subconfluent density and allowed to attach overnight. The following day, cells were treated as indicated in the figures/legends, harvested with versene (Invitrogen), washed with PBS and incubated with primary antibody (10 μg/mL) diluted in staining buffer (PBS pH 7.4, 4% FBS, 0.1% sodium azide) for 30 minutes on ice. […] After incubation with primary antibody, samples were washed with staining buffer and then incubated with secondary antibody (PE-conjugated anti-human antibody; 1:100) for 30 minutes on ice. After incubation, samples were washed with staining buffer and examined on a Becton Dickinson FACSCalibur flow cytometer (BD Immunocytometry Systems, San Jose, Calif.). Data analysis was performed with Becton Dickinson Cell Quest software and the geometric mean fluorescence intensity (GeoMean) was determined for each sample.
(§2) For the data shown in Table 37, flow cytometry was performed on intact, non-permeabilized cells using the indicated primary monoclonal antibodies. […] The results are reported as GeoMeans. […] For the data shown in the bottom left panel of Table 37, SKMEL2 (melanoma) cells were treated with MEKi (U0126; 10 uM), imatinib (20 uM), p38i (p38 MAPKi SB202190; 50 uM), NH4Cl (ammonium chloride; 20 mM) or CLQ (chloroquine; 20 uM) for 48 hours prior to analysis. For the data shown in the bottom right panel of Table 37, WM2664 (melanoma) cells were treated with MON (monensin) or MMPi (GM6001) for 48 hours prior to analysis.

[4] = tested on: GPNMB surface expression on SF539 glioblastoma cells; test: Flow cytometry of GPNMB surface expression, SF539 cells; conditions: SF549, CR011 (anti-GPNMB) primary antibody
Protocol: as §1, §2

[5] = tested on: GPNMB surface expression on SKMEL2 melanoma cells; test: Flow cytometry of GPNMB surface expression, SKMEL2 cells; conditions: for GPNMB surface expression, flow cytometry GeoMean: SKMEL2, CR011 (anti-GPNMB) primary antibody, MEKi (U0126) 10 uM, imatinib 20 uM, p38i (SB202190) 50 uM; for GPNMB surface-expression: SKMEL2 cells, 48 hours (Table 37, bottom left)
Protocol: as §1
For the data shown in Table 37, flow cytometry was performed on intact, non-permeabilized cells using the indicated primary monoclonal antibodies. […] The results are reported as GeoMeans. For the data shown in the top panel of Table 37, A375 (melanoma) or SF539 (glioblastoma) cells were treated with the indicated concentrations of MEKi (U0126), RAFKi (553013) or ERKi (FR180204) for 12, 24 or 48 hours prior to analysis. For the data shown in the bottom left panel of Table 37, SKMEL2 (melanoma) cells were treated with MEKi (U0126; 10 uM), imatinib (20 uM), p38i (p38 MAPKi SB202190; 50 uM), NH4Cl (ammonium chloride; 20 mM) or CLQ (chloroquine; 20 uM) for 48 hours prior to analysis. For the data shown in the bottom right panel of Table 37, WM2664 (melanoma) cells were treated with MON (monensin) or MMPi (GM6001) for 48 hours prior to analysis.

[6] = tested on: UACC62 melanoma cells; test: In vitro growth-inhibition/cytotoxicity assay, UACC62 cells; conditions: 0.16 μg/mL, 72 hours, trypan blue
[7] = melanoma lines SKMEL2, A375, WM2664, MEWO, 48 hours (FIG. 6A)

Molecule: Cc1ccc2nc(NCCN)c3ncc(C)n3c2c1 [BMS345541]
- increase of GPNMB expression in the screen [1]: ineffective

Molecule: Nc1n[nH]c2nnc(-c3c(-c4ccccc4)nn4ccccc34)cc12 [FR180204, 5-(2-phenylpyrazolo[1,5-a]pyridin-3-yl)-1H-pyrazolo[3,4-c]pyridazin-3-amine]
- inhibition of the ERK pathway (phospho-ERK levels) ([2]; FIG. 3B bottom, A375, SKMEL2, SF539): relatively weak inhibition
- GPNMB surface expression, flow cytometry GeoMean ([3]; ERKi (FR180204) 3.1 uM, 12 h): 13.0
- GPNMB surface expression, flow cytometry GeoMean ([3]; ERKi (FR180204) 3.1 uM, 24 h): 13.5
- GPNMB surface expression, flow cytometry GeoMean ([3]; ERKi (FR180204) 3.1 uM, 48 h): 13.1
- GPNMB surface expression, flow cytometry GeoMean ([3]; ERKi (FR180204) 50 um, 12 h): 13.0
- GPNMB surface expression, flow cytometry GeoMean ([3]; ERKi (FR180204) 50 um, 24 h): 14.9
- GPNMB surface expression, flow cytometry GeoMean ([3]; ERKi (FR180204) 50 um, 48 h): 50.3
- GPNMB surface expression ([3]; A375 melanoma, 12, 24 or 48 hours (Table 37, top)): induced GPNMB surface expression
- GPNMB surface expression, flow cytometry GeoMean ([4]; ERKi (FR180204) 3.1 uM, 12 h): 32.6
- GPNMB surface expression, flow cytometry GeoMean ([4]; ERKi (FR180204) 3.1 uM, 24 h): 33.7
- GPNMB surface expression, flow cytometry GeoMean ([4]; ERKi (FR180204) 3.1 uM, 48 h): 32.6
- GPNMB surface expression, flow cytometry GeoMean ([4]; ERKi (FR180204) 50 um, 12 h): 31.3
- GPNMB surface expression, flow cytometry GeoMean ([4]; ERKi (FR180204) 50 um, 24 h): 30.7
- GPNMB surface expression, flow cytometry GeoMean ([4]; ERKi (FR180204) 50 um, 48 h): 30.6
- GPNMB induction (immunoblotting) ([1]; A375 cells, only following an exposure time of 48 hours (FIG. 3B, bottom)): strong induction
- GPNMB induction (immunoblotting) ([1]; SKMEL2 or SF539 cells (FIG. 3B, bottom)): Little or no GPNMB induction

Molecule: O=c1cc(N2CCOCC2)oc2c(-c3ccccc3)cccc12 [LY94002]
- increase of GPNMB expression in the screen [1]: ineffective

Molecule: Nc1ncn([C@@H]2O[C@H](CO)[C@@H](O)[C@H]2O)c(=O)n1 [Mab 5-AZA]
- increase of GPNMB expression in the screen [1]: ineffective

Molecule: Oc1ccc(-c2nc(-c3ccc(F)cc3)c(-c3ccncc3)[nH]2)cc1 [SB202190, 4-[4-(4-Fluorophenyl)-5-(4-pyridinyl)-1H-imidazol-2-yl]phenol]
- GPNMB surface expression, flow cytometry GeoMean [5]: 85.1

Molecule: Cl.N [ammonium chloride]
- GPNMB surface expression, flow cytometry GeoMean [5]: 93.8
- GPNMB surface-expression [5]: increase GPNMB surface-expression
- GPNMB induction compared with MTf and MCAM ([1]; NH4Cl 20 mM, 48 hours (FIG. 6E)): more highly induced
- GPNMB detection with protein synthesis inhibitor ([1]; ammonium chloride (50 mM) along with protein synthesis inhibitor, 1 hour (FIG. 6D)): readily detectable
- GPNMB expression (immunoblotting) [1, 7]: induced

Molecule: O=C(/C=C/c1cccc(S(=O)(=O)Nc2ccccc2)c1)NO [belinostat]
- increase of GPNMB expression in the screen [1]: ineffective

Molecule: CC(C)C[C@H](NC(=O)[C@H](Cc1ccccc1)NC(=O)c1cnccn1)B(O)O [bortezomib]
- increase of GPNMB expression in the screen [1]: ineffective

Molecule: O=NN(CCCl)C(=O)NCCCl [carmustine]
- increase of GPNMB expression in the screen [1]: ineffective

Molecule: CCN(CC)CCCC(C)Nc1ccnc2cc(Cl)ccc12 (centres unmarked) [chloroquine]
- GPNMB surface expression, flow cytometry GeoMean [5]: 91.2
- GPNMB surface-expression [5]: increase GPNMB surface-expression
- GPNMB expression (immunoblotting) [1, 7]: induced

Molecule: N.N.[Cl][Pt][Cl] [cisplatin]
- increase of GPNMB expression in the screen [1]: ineffective

Molecule: C[C@@H]1C[C@@H]([C@H](O)CC2CC(=O)NC(=O)C2)C(=O)[C@@H](C)C1 [cyclohexamide]
- GPNMB expressed after protein synthesis inhibition [1]: little or no GPNMB

Molecule: CC[C@H]1CN2CCc3cc(OC)c(OC)cc3[C@@H]2C[C@@H]1C[C@H]1NCCc2cc(OC)c(OC)cc21 [emetine]
- GPNMB expressed after protein synthesis inhibition [1]: little or no GPNMB

Molecule: Cc1ccc(NC(=O)c2ccc(CN3CCN(C)CC3)cc2)cc1Nc1nccc(-c2cccnc2)n1 [imatinib]
- phospho-ERK ([2]; melanoma and glioblastoma cell lines, imatinib 20 μM, 48 hours (FIG. 6B)): without inhibiting phospho-ERK
- GPNMB surface expression, flow cytometry GeoMean [5]: 103.7
- GPNMB surface-expression [5]: increase GPNMB surface-expression
- GPNMB expression (immunoblotting) [1, 7]: induced
- GPNMB expression (immunoblotting) ([1]; variety of melanoma and glioblastoma cell lines, 48 hours (FIG. 6B, 6C)): strongly induced; also recorded: robust GPNMB expression

Molecule: CC(=O)O[C@H]1C(=O)[C@@]2(C)[C@H]([C@H](OC(=O)c3ccccc3)[C@]3(O)C[C@H](OC(=O)[C@H](O)[C@@H](NC(=O)c4ccccc4)c4ccccc4)C(C)=C1C3(C)C)[C@]1(OC(C)=O)CO[C@@H]1C[C@@H]2O [paclitaxel]
- increase of GPNMB expression in the screen [1]: ineffective

Molecule: CR011-vcMMAE: antibody-drug conjugate of anti-GPNMB antibody CR011 with Auristatin E (vcMMAE) through a protease-cleavable linker
- growth-inhibition ([6]; UACC62 cells not pretreated with the MEK inhibitor): little growth-inhibition
- growth-inhibition ([6]; UACC62 cells pretreated with the MEK inhibitor (U0126 1 μM, 48 hours)): strong growth-inhibition

Molecule: IFNα
- increase of GPNMB expression in the screen [1]: ineffective

Molecule: IFNγ: IFNγ, compound examined in the screen
- increase of GPNMB expression in the screen [1]: ineffective
